The values below come from patent EP0442663A1, “Improvements in chemical compounds” (priority 1990, dated 1991).

The test system of one data set is HIV-1 (HTLV-IIIB). The data set can be described thus: microbe, parasite or virus in culture. The note with it: for ED50: antiviral activity, MT-4 cells challenged with HIV-1 (HTLV-IIIB) at 100 CCID50, 5 days. The class given is cell-based. As to the method:
(§1) The compounds of the invention were tested in a screen by the MTT method (J.Virol. Methods […]: 309-321 [1988]). MT-4 cells (2.5 x 10⁴ / well) were challenged with HIV-1 (HTLV-IIIB) or HIV-2 (LAV-2 ROD) at a concentration of 100 CCID₅₀ and incubated in the presence of various concentrations of the test compounds, which were added immediately after challenge with the virus. After 5 days culture at 37°C in a CO₂ incubator, the number of viable cells was assessed by the MTT (tetrazolium) method. Antiviral activity and cytotoxicity of the compounds are expressed in the table below as ED₅₀ (ug/ml) and CD₅₀ (ug/ml), respectively. The potential therapeutic usefulness was assessed by calculating a Selectivity Index (SI) corresponding to the ratio of CD₅₀ to ED₅₀. A control test was performed using the known anti-HIV treatment AZT, and a comparison compound HPA-23 was also run through the screen as detailed below. In the table below, the compounds screened were […]

A further data set relates to HIV-2 (LAV-2 ROD). The data set can be described thus: MTT method anti-HIV screen in MT-4 cells, HIV-2 challenge. Format: cell-based. The note with it: antiviral activity, MT-4 cells challenged with HIV-2 (LAV-2 ROD) at 100 CCID50, 5 days. As to the method: as §1
In general terms: Tetrazolium assays rely on reduction of a dye to a coloured formazan, in cell work by metabolically active cells.

The subject of the next data set is MT-4 cells. The data set can be described thus: Cytotoxicity by MTT method. The following applies: 5 days. The class given is cell-based. On the procedure:
as §1

The next data set has as its system herpes virus. The note with it: from JP 64-38,022; cited from earlier work.
For a further data set, the system named is HIV. The note with it: reported in Chemical and Engineering News, December 1986; cited from earlier work.
For data set [1] the following is noted: in vivo; cited from earlier work.
Data set [2] is described as follows: Cytotoxicity by MTT method. Format: cell-based. The note with it: human, MT-4 cells, 5 days, read-out: CD50. On the procedure:
as §1

Setting [3] is: value printed in the HIV-1 line.
Setting [4] is: value printed in the HIV-2 line.
Setting [5] is: value printed in the HIV-1 line, 7200 min.
Setting [6] is: value printed in the HIV-2 line, 7200 min.

Several values for one entry are separate records, joined by “and”; a condition that tells them apart may be missing. Identical values can stand only once. Some results are limits rather than exact numbers.

With K10[P2W18Zn4(H2O)2O68] [B], the ED50 with HIV-1 (HTLV-IIIB) is 0.71 µg/mL; in the data set with HIV-2 (LAV-2 ROD) it was 18.03 µg/mL. Also, the CD50 in the data set on MT-4 cells (setting [3]) is 466.3 µg/mL; in the data set on MT-4 cells (setting [4]), 441.9 µg/mL.
For K10[P2W18Co4(H2O)2O68], the ED50 in the data set with HIV-1 (HTLV-IIIB) worked out at 1.47 µg/mL; in the data set on HIV-2 (LAV-2 ROD) it was 12.26 µg/mL. Also, the CD50 in the data set with MT-4 cells (setting [3]) was found to be 84.8 µg/mL; in the data set on MT-4 cells (setting [4]), 81.6 µg/mL.
(NH₄)₁₂[H₂P₂W₁₂O₄₈].16H₂O [Example 7]: the CD50 in the data set with MT-4 cells (setting [5]) is >500.0 µg/mL and 304.0 µg/mL; in the data set on MT-4 cells (setting [6]), 346.0 µg/mL and 286.0 µg/mL.
As for “(NH₄)₁₇H[NaSb₉W₂₁O₈₆] [HPA 23, reference compound]”, the ED50 in the data set on HIV-1 (HTLV-IIIB) is 2.8 µg/mL; with HIV-2 (LAV-2 ROD) it was over 4 µg/mL. The values for the CD50 in the data set with MT-4 cells (setting [3]) and in the data set with MT-4 cells (setting [4]) were 7.4 µg/mL and 2.4 µg/mL, respectively.
With K₇PW₁₀Ti₂O₄₀, the “activity against herpes virus” value in the data set with herpes virus is given as “have activity against herpes virus”.
In the case of K₅BW₁₂O₄₀, the “activity against herpes virus” value with herpes virus is listed as “have activity against herpes virus”.
For the compound Na12[P4W14O58] [F], the ED50 with HIV-1 (HTLV-IIIB) was determined as 4.82 µg/mL; in the data set on HIV-2 (LAV-2 ROD) it was 13.26 µg/mL. The figures for the CD50 in the data set with MT-4 cells (setting [3]) and in the data set on MT-4 cells (setting [4]) were 655.8 µg/mL and 682.8 µg/mL, respectively.
Regarding silicotungstate acid, H₄SiW₁₂O₄₀, the “activity against HIV” value in the data set with HIV is “has activity against HIV”. In data set [1], the “toxicity in higher animals” value is listed as “abandoned because of its toxicity in higher animals”.
Turning to K9Li[P2W17O62] [E], the ED50 in the data set with HIV-1 (HTLV-IIIB) turned out to be 2.92 µg/mL; with HIV-2 (LAV-2 ROD), 7.28 µg/mL. The CD50 in the data set with MT-4 cells (setting [3]) is 502.9 µg/mL; in the data set with MT-4 cells (setting [4]) it was 429.7 µg/mL.
With Na7[PrW10O35] [C], the ED50 in the data set on HIV-1 (HTLV-IIIB) came to 1.86 µg/mL; with HIV-2 (LAV-2 ROD) it was 2.70 µg/mL. The CD50 stood at 761.8 µg/mL in the data set on MT-4 cells (setting [3]) and 221.7 µg/mL with MT-4 cells (setting [4]).
As for `Cc1cn([C@H]2C[C@H](N=[N+]=[N-])[C@@H](CO)O2)c(=O)[nH]c1=O` [AZT, azidothymidione, reference compound], the EC50 with HIV-1 (HTLV-IIIB) (Human immunodeficiency virus 1, IIIB, MT4, 120 h, read-out: ED50) was under 0.008 µg/mL. In addition, the SI in the data set on HIV-1 (HTLV-IIIB) (Selectivity Index, ratio of CD50 to ED50, HIV-1, 7200 min) is on record as over 125. Further, in data set [2], the CC50 at 120 h was over 1 µg/mL.
For the compound “Reduced form of K₆[P₂W₁₂Mo₆O₆₂] [Example 12]”, the ED50 is 4.1 µg/mL and 5.8 µg/mL in the data set on HIV-1 (HTLV-IIIB) (7200 min); 1.8 µg/mL and 1.4 µg/mL in the data set with HIV-2 (LAV-2 ROD) (7200 min). Moreover, the CD50 with MT-4 cells (setting [5]) was 234.0 µg/mL and 300.0 µg/mL; in the data set with MT-4 cells (setting [6]) it was 315.0 µg/mL and 306.0 µg/mL.
With K12[H2P2W12O48] [A], the ED50 with HIV-1 (HTLV-IIIB) came to 0.089 µg/mL; with HIV-2 (LAV-2 ROD), 0.153 µg/mL. Besides, the CD50 in the data set on MT-4 cells (setting [3]) was 721.0 µg/mL; with MT-4 cells (setting [4]), 675.9 µg/mL.
